Measurements published in patent publication US10759766B2, “Certain chemical entities, compositions, and methods” (NeuPharma, Inc., priority 2011, dated 2020).

Assays:
A375 cells = test: Inhibition of cancer cell growth, MTT assay, A375; assay type: cell-based; conditions: Homo sapiens, A-375, 72 h exposure
Summary of the method: (§1)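 IC50 derived from percent growth inhibition versus concentration, tested in triplicate. Growth inhibition came from MTT read at 570 nm after 72 h drug exposure, relative to viable cells at dosing. Cells (about 4000/well, RPMI 1640 + 10% FBS) adhered 24 h before treatment; final DMSO 1%.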

A549 cells = test: Inhibition of cancer cell growth, MTT assay, A549; assay type: cell-based; conditions: Homo sapiens, A549, 72 h exposure
Summary of the method: as §1

KDR (VEGFR2) = KDR (VEGFR2) (Homo sapiens (Human), UniProt P35968); test: Z′-LYTE kinase inhibition assay (Invitrogen), KDR; assay type: biochemical; conditions: Z′-LYTE method; for inhibition at 1 µM: 1 μM compound, read-out: % inhibition at 1 μM against KDR; for IC50: read-out: IC50 against KDR
Chain of KDR (VEGFR2) (P35968 20-1356): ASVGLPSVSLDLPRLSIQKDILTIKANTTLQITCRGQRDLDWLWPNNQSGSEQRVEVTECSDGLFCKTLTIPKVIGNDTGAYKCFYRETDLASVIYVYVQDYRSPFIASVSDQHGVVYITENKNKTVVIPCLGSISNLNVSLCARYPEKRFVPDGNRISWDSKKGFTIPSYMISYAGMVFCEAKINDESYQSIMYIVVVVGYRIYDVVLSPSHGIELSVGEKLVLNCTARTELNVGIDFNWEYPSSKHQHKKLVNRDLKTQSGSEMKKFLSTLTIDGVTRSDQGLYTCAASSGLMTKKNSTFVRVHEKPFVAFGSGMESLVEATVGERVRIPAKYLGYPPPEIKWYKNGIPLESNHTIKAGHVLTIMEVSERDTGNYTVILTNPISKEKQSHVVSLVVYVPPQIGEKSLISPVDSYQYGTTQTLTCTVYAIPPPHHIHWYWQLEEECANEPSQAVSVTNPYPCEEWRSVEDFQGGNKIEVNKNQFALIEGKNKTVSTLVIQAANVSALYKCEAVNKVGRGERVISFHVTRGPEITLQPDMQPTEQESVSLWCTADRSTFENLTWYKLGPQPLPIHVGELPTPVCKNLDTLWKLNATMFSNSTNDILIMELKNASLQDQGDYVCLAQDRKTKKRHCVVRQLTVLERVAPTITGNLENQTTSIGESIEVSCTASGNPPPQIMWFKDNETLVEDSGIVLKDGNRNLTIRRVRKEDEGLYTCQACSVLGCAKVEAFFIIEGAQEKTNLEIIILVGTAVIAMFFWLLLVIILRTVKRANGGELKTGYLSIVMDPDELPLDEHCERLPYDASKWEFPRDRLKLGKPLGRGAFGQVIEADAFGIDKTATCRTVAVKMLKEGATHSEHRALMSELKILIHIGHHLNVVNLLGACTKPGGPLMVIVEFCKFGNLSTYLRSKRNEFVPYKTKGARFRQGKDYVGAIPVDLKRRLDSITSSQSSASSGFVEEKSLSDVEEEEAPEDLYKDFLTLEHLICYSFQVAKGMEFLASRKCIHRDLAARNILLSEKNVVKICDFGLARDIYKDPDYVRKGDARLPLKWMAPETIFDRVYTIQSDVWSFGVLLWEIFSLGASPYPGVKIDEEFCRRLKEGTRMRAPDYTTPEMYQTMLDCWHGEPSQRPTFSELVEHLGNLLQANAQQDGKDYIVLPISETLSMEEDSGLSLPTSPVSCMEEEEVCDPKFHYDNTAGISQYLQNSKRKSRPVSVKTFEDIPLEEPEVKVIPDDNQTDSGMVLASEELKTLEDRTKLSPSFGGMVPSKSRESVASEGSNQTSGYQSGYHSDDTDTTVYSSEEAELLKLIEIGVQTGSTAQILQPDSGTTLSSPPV
Summary of the method: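 Z′-LYTE FRET assay: 10 μL reactions with 0.5–11.7 ng KDR and 2 μM Tyr 01 peptide in 50 mM HEPES pH 7.5, 10 mM MgCl2, 1 mM EGTA, 0.01% BRIJ-35, 1 h at room temperature. Development Reagent B (1:256) added for 60 min, fluorescence read; IC50 from concentration–inhibition curves.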

BRAF V600E = BRAF V600E (Homo sapiens (Human), UniProt P15056, V600E); test: Z′-LYTE kinase inhibition assay (Invitrogen), BRAF V600E; assay type: biochemical; conditions: Z′-LYTE method; for inhibition at 1 µM: 1 μM compound, read-out: % inhibition at 1 μM against BRAF V600E; for IC50: read-out: IC50 against BRAF V600E
Chain of BRAF V600E (P15056 whole entry V600E): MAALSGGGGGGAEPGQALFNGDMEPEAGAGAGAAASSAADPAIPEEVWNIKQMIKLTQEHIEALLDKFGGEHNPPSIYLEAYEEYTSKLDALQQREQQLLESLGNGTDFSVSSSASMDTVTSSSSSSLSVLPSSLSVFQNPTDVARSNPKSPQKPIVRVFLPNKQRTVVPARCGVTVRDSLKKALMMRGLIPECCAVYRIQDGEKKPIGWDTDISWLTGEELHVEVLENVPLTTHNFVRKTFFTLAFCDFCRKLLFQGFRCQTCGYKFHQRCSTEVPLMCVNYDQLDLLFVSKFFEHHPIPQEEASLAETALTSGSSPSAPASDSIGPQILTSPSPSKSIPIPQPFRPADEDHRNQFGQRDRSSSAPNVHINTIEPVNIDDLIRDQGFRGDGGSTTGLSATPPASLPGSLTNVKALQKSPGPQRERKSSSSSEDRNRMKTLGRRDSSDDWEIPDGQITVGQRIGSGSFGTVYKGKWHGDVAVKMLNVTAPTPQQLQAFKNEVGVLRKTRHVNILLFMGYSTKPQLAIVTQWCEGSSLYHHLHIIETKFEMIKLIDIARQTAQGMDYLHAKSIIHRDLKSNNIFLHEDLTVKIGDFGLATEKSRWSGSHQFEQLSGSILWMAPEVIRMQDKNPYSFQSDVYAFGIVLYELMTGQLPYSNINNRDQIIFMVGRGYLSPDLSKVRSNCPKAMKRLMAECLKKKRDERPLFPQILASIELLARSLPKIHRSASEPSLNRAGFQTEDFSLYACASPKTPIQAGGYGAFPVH
Summary of the method: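 FRET-based Z′-LYTE peptide phosphorylation format in 50 mM HEPES pH 7.5, 0.01% BRIJ-35, 10 mM MgCl2, 1 mM EGTA with ATP. Kinase reaction 60 min at room temperature, then protease development step 60 min at room temperature before fluorescence read. IC50 from compound concentration versus percent inhibition.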

BRAF = BRAF (Homo sapiens (Human), UniProt P15056); test: Z′-LYTE kinase inhibition assay (Invitrogen), BRAF; assay type: biochemical; conditions: 1 μM compound, Z′-LYTE method; read-out: % inhibition at 1 μM against BRAF
Chain of BRAF (P15056 whole entry): as the sequence (P15056 whole entry V600E) above, with E600V counted along it
Description: Inhibitory activities Inhibitory activities of compounds against BRAF, and BRAF V600E were measured by Invitrogen using Z′-LYTE® Method as briefly described in the following. 4× Test compounds are dissolved in 1% DMSO. […] ATP solutions are diluted to a 4×ATP working concentration in Kinase Buffer (50 mM HEPES pH 7.5, 0.01% BRIJ-35, 10 mM MgCl2, 1 mM EGTA). Reaction started by 30-second shaking of mixture consisting of 2.5 μL 4× test compound, […] and 2.5 μL 4×ATP Solution on Bar-coded Corning, low volume NBS, black 384-well plate (Corning Cat. #3676). Then the mixture was incubated for 60-minute at room temperature for the kinase reaction, followed by addition of 5 μL of a 1:1024 dilution of development reagent A and 30-second plate shake. The mixture was then incubated for another 60-minute at room temperature for development reaction. Fluorescence was read by plate reader. IC50 was calculated by plotting the concentration of compound vs the percentage of inhibition in treated wells using GraphPad Prism 5.

O=C(Nc1cccc(C(=O)c2ccc3ncc(-n4ccnc4)nc3c2)c1)c1ccc(Cl)c(C(F)(F)F)c1 [Compound C132, N-(3-(3-(1H-imidazol-1-yl)quinoxaline-6-carbonyl)phenyl)-4-chloro-3-(trifluoromethyl)benzamide]
IC50 (A375 cells): < 1000 nM
IC50 (A549 cells): > 5000 nM
inhibition at 1 µM (KDR (VEGFR2)): 70 to 89%
inhibition at 1 µM (BRAF V600E): > 89%
inhibition at 1 µM (BRAF): < 70%

O=C(Nc1cccc(C(=O)c2ccc3nccnc3c2)c1)c1cccc(F)c1 [Compound C105, 3-fluoro-N-(3-(quinoxaline-6-carbonyl)phenyl)benzamide]
IC50 (A375 cells): 1000 to 5000 nM
IC50 (A549 cells): < 2000 nM
inhibition at 1 µM (KDR (VEGFR2)): < 70%
inhibition at 1 µM (BRAF V600E): 70 to 89%
inhibition at 1 µM (BRAF): < 70%

O=C(Nc1cccc(C(=O)c2ccc3nccnc3c2)c1)Nc1cc(C(F)(F)F)ccc1Cl [Compound C002, 1-(2-chloro-5-(trifluoromethyl)phenyl)-3-(3-(quinoxaline-6-carbonyl)phenyl)urea]
IC50 (A375 cells): 1000 to 5000 nM
IC50 (A549 cells): < 2000 nM
inhibition at 1 µM (KDR (VEGFR2)): < 70%
inhibition at 1 µM (BRAF V600E): > 89%
inhibition at 1 µM (BRAF): 70 to 89%

O=C(Nc1ccc(F)c(C(=O)c2ccc3ncc(N4CCOCC4)nc3c2)c1)Nc1ccc(Cl)c(C(F)(F)F)c1 [Compound C030, 1-(4-chloro-3-(trifluoromethyl)phenyl)-3-(4-fluoro-3-(3-morpholinoquinoxaline-6-carbonyl)phenyl)urea]
IC50 (A375 cells): < 1000 nM
IC50 (A549 cells): 2000 to 5000 nM
inhibition at 1 µM (KDR (VEGFR2)): > 89%
IC50 (KDR (VEGFR2)): < 100 nM
inhibition at 1 µM (BRAF V600E): 70 to 89%
IC50 (BRAF V600E): > 100 nM
inhibition at 1 µM (BRAF): < 70%

O=C(Nc1ccnc(C(F)(F)F)c1)Nc1ccc(F)c(C(=O)c2ccc3ncc(N4CCOCC4)nc3c2)c1 [Compound C090, 1-(4-fluoro-3-(3-morpholinoquinoxaline-6-carbonyl)phenyl)-3-(2-(trifluoromethyl)pyridin-4-yl)urea]
IC50 (A375 cells): < 1000 nM
IC50 (A549 cells): > 5000 nM
inhibition at 1 µM (KDR (VEGFR2)): 70 to 89%
inhibition at 1 µM (BRAF V600E): > 89%
inhibition at 1 µM (BRAF): > 89%

O=C(Nc1ccc(F)c(C(=O)c2ccc3nccnc3c2)c1)Nc1ccc(Cl)c(C(F)(F)F)c1 [Compound C015, 1-(4-chloro-3-(trifluoromethyl)phenyl)-3-(4-fluoro-3-(quinoxaline-6-carbonyl)phenyl)urea]
IC50 (A375 cells): < 1000 nM
IC50 (A549 cells): < 2000 nM
inhibition at 1 µM (KDR (VEGFR2)): > 89%
IC50 (KDR (VEGFR2)): < 100 nM
inhibition at 1 µM (BRAF V600E): > 89%
IC50 (BRAF V600E): < 100 nM
inhibition at 1 µM (BRAF): < 70%

O=C(Nc1ccc(F)cc1)Nc1ccc(F)c(C(=O)c2ccc3ncc(N4CCOCC4)nc3c2)c1 [Compound C053, 1-(4-fluoro-3-(3-morpholinoquinoxaline-6-carbonyl)phenyl)-3-(4-fluorophenyl)urea]
IC50 (A375 cells): < 1000 nM
IC50 (A549 cells): < 2000 nM
inhibition at 1 µM (KDR (VEGFR2)): > 89%
IC50 (KDR (VEGFR2)): < 100 nM
inhibition at 1 µM (BRAF V600E): > 89%
inhibition at 1 µM (BRAF): > 89%

COc1cnc2ccc(C(=O)c3cc(NC(=O)Nc4ccc(F)cc4)ccc3F)cc2n1 [Compound C080, 1-(4-fluoro-3-(3-methoxyquinoxaline-6-carbonyl)phenyl)-3-(4-fluorophenyl)urea]
IC50 (A375 cells): 1000 to 5000 nM
IC50 (A549 cells): 2000 to 5000 nM
inhibition at 1 µM (KDR (VEGFR2)): 70 to 89%
IC50 (KDR (VEGFR2)): < 100 nM
inhibition at 1 µM (BRAF V600E): > 89%
inhibition at 1 µM (BRAF): 70 to 89%

O=C(Nc1cc(F)c(F)c(C(=O)c2ccc3nccnc3c2)c1F)c1cccc(C(F)(F)F)c1 [Compound C109, N-(2,4,5-trifluoro-3-(quinoxaline-6-carbonyl)phenyl)-3-(trifluoromethyl)benzamide]
IC50 (A375 cells): > 5000 nM
IC50 (A549 cells): 2000 to 5000 nM
inhibition at 1 µM (KDR (VEGFR2)): 70 to 89%
IC50 (KDR (VEGFR2)): > 100 nM
inhibition at 1 µM (BRAF V600E): 70 to 89%
IC50 (BRAF V600E): > 100 nM
inhibition at 1 µM (BRAF): < 70%

O=C(Nc1ccc(F)cc1)Nc1ccc(F)c(C(=O)c2ccc3ncc(N4CCNCC4)nc3c2)c1 [Compound C100, 1-(4-fluoro-3-(3-(piperazin-1-yl)quinoxaline-6-carbonyl)phenyl)-3-(4-fluorophenyl)urea]
IC50 (A549 cells): 2000 to 5000 nM
inhibition at 1 µM (KDR (VEGFR2)): > 89%
IC50 (KDR (VEGFR2)): < 100 nM
inhibition at 1 µM (BRAF V600E): > 89%
inhibition at 1 µM (BRAF): > 89%
